From ChEMBL document CHEMBL3507680, “University of Dundee, Gates Library screen for HepG2 cell viability”

Assay: Human HepG2 cell viability assay in 384 well format
Assay type: toxicity, cell-based
Parameters: dose 125 nL, time 70.5 hour; concentration not given beside the values
Details: HepG2 cells, read-out: Inhibition

Structure (SMILES)	cytotoxicity at 70.5 h
CCC(c1ccccc1)c1nn2c(CN(CC)CC)nnc2s1 (configuration not stated)	-5.77%
Cc1ncc2c(n1)CCCC2NC(=O)c1cnn(Cc2ccccc2)c1 (configuration not stated)	-12.8%
COCC(=O)N1CCC([C@@H]2C[C@H](C(F)(F)F)n3nc(C)cc3N2)CC1	-3.42%
Cc1nc(C)n(CCC(=O)N2CCc3ncc(Cl)cc3C2)n1	6.03%
O=C1CN(C(=O)CCn2c(C(F)(F)F)cc3cccnc32)CCN1	4.91%
O=C(c1ccccn1)N1Cc2ccccc2OC2(CCOCC2)C1	-0.0226%
CCCNC(=O)C1(CC2CC(c3ccccc3OC)=NO2)CCOCC1 (configuration not stated)	6.7%
Nc1cncc(C(=O)N2Cc3ccccc3OC3(CCOCC3)C2)c1	7.99%
Cc1nc(N)sc1C(=O)N1Cc2ccccc2OC2(CCOCC2)C1	31.2%
CCc1cc(C(=O)N2CCC(c3cc4ncccc4cn3)CC2)on1	-0.772%
c1cc(-c2nc(C3CCN(Cc4ccsc4)CC3)no2)ccn1	36.8%
CCc1onc(C)c1C(=O)N1CCC(c2cc3ncccc3cn2)CC1	9.24%
Cc1nc(C2CCCN2C(=O)Cc2ccc(F)cc2)nc(O)c1C (configuration not stated)	2.83%
COCCN(C)C(=O)c1ccccc1-n1cc(CN(C)C)cn1	-5.25%
Cc1ccccc1CC(=O)N1CC[C@@](O)(CNS(C)(=O)=O)[C@H](O)C1	0.727%
CN(C)Cc1cnn(-c2ccccc2C(=O)N(C)Cc2ccccc2)c1	-5.67%
Cc1nc(C(=O)N(C)[C@@H]2CCC[C@@H](Oc3ccccc3)[C@@H]2O)co1	6.12%
Cc1noc(C)c1-c1ccc(C2CCCN2C(=O)c2cccnc2)nc1 (configuration not stated)	-4.62%
COCc1nc(C2CCN(Cc3ncc[nH]3)CC2)no1	6.2%
CC(=O)N1CCC(c2ncc3c(n2)CCN(C(=O)c2ccccc2)C3)C1 (configuration not stated)	-2.46%
COCC(=O)N1CCCC(Cc2cnc(-c3c(C)n[nH]c3C)cn2)C1 (configuration not stated)	0.347%
Cc1nc2ccccn2c1CC(=O)N[C@@H]1CCC[C@@H](N2CCCC2)[C@@H]1O	-1.64%
CN(C(=O)c1ccn(C)n1)[C@@H]1CCC[C@@H](Oc2ccccc2)[C@@H]1O	-4.51%
O[C@H]1CN(CCOc2ccc(F)cc2)CC[C@@]12CCCO2	-2.62%

Structure (SMILES)	cytotoxicity at 70.5 h
CS(=O)(=O)c1cn[nH]c1C1CCCN1C(=O)c1cccnc1 (configuration not stated)	-2.09%
O=C(N[C@@H]1CCC[C@@H](N2CCOCC2)[C@@H]1O)c1ncccn1	6.75%
O=S(=O)(c1ccc(F)cc1)N1CCCC(c2nccs2)C1 (configuration not stated)	-2.41%
O=S(=O)(c1ccccc1)N1CCCC(c2nccs2)C1 (configuration not stated)	-2%
COCC(=O)N1CCCC1c1nc(O)cc(C(C)C)n1 (configuration not stated)	1.53%
COCCC(=O)N1CCCC1c1nc(O)cc(C(C)C)n1 (configuration not stated)	-0.774%
CC(C)c1cc(O)nc(C2CCCN2C(=O)C(C)(C)C)n1 (configuration not stated)	26.4%
CC(C)c1cc(O)nc(C2CCCN2C(=O)C2CC2)n1 (configuration not stated)	-1.44%
CS(=O)(=O)c1cn[nH]c1C1CCCCN1C(=O)c1ccsc1 (configuration not stated)	-1.64%
O=S(=O)(c1cccs1)N1CCCC(c2nccs2)C1 (configuration not stated)	-3.29%
CC(=O)N1CCC(C(=O)N2CCCC(Cc3ccccn3)C2)CC1 (configuration not stated)	-8.43%
Cc1cc(C)nc(C2CCCN2c2ccnc(C)n2)n1 (configuration not stated)	-0.201%
CNC(=O)c1cn[nH]c1C1(C)CCCN(Cc2ccccn2)C1 (configuration not stated)	-7.3%
CCCn1cc(CN2CCCC2c2cccc(-n3ccnc3)n2)cn1 (configuration not stated)	-7.28%
CN1CCC(NC(=O)C2CN(c3cncnc3)CCO2)CC1 (configuration not stated)	-7.93%
Cc1noc(C2(C)CCCN(C(=O)c3cnn(C)c3)C2)n1 (configuration not stated)	-7.96%
COCc1nc(C2CCN(Cc3nccn3C)CC2)no1	-4.44%
CCN(Cc1ccncc1)CC1(O)CCN(C(=O)c2cnn(C)c2)C1 (configuration not stated)	-4.91%
Cc1nc(Nc2nncs2)cc(C2CCCN2C)n1 (configuration not stated)	3.74%
CCc1nnc(Nc2cccc(C3CCN(CC4CC4)CC3)n2)s1	-7.67%
CN(C)C(=O)CN1CCCCC1c1nc(N)ncc1-c1ccc(Cl)cc1 (configuration not stated)	-15.8%
Cc1cc(N)nc(C2(C)CCCN2C(=O)c2cnccn2)n1 (configuration not stated)	4.65%
Cc1nc(Nc2nnc(C)s2)cc(C2CCCN2c2ccncn2)n1 (configuration not stated)	-8.94%
NC(=O)CN1CCC(c2cncc(-c3cccc(Cl)c3)n2)CC1	15.3%

Structure (SMILES)	cytotoxicity at 70.5 h
Cc1nc(Nc2ncccn2)cc(C2CCN(CC(C)C)C2)n1 (configuration not stated)	-15.1%
CCC(=O)N1CCC(Cc2ccccc2-c2ccccc2F)(C(N)=O)C1 (configuration not stated)	-8.54%
CCC(=O)N1CCC(Cc2ccccc2-c2cccc(C)c2)(C(N)=O)C1 (configuration not stated)	12.2%
CCN(CC(O)c1ccc(C)cc1)C(=O)NC(C)C (configuration not stated)	-1.93%
CCN1CCN(c2cncc(Cl)n2)CC1	26.6%
CC(C)(C)c1ncc(CNCC2CN(C3CC3)CCO2)s1 (configuration not stated)	-2.48%
COCCNC(=O)CN(C)C(C)c1nc(C)no1 (configuration not stated)	3.14%
CCc1nc(CSCc2csc(CS(C)(=O)=O)n2)cs1	-1.17%
CCN(C)C(=O)c1cccc(C(=O)N(C)Cc2cccc(O)c2)c1	25.8%
CC(C)CN(CC(O)c1ccccc1)C(=O)NC(C)C (configuration not stated)	-4.36%
CC(C)c1ccc(CNC(c2ccc(F)cn2)C(C)C)cc1 (configuration not stated)	0.89%
CCN1CCOC(CNCc2ccc(C)s2)C1 (configuration not stated)	-4.21%
CC1CCN(C(=O)CSCCN2CCOCC2)CC1	4.07%
COc1ccccc1CC(C)CC(=O)NS(=O)(=O)C(C)C (configuration not stated)	9.2%
Cc1cc(C)cc(NCCC(=O)NC2CCCCC2)c1	1.57%
O=C(C(c1ccccc1)S(=O)(=O)c1ccccn1)N1CCCC1 (configuration not stated)	-2.5%
Cc1cccc(-c2ccc(C(=O)N3CCSCC3)c(=O)[nH]2)c1	0.198%
O=C(CCNc1ccccc1)NC1CCN(C(=O)C2CCCCC2)CC1	-5.78%
Cc1cnn(CC2CN(CC(=O)Nc3c(C)nn(C)c3C)CCO2)c1 (configuration not stated)	-4.95%
CC(C)OCCC(=O)NS(=O)(=O)N1CCOc2ccccc21	-0.303%
Cc1cc(NC(=O)CNC2CCc3ncnn3C2)on1 (configuration not stated)	9.31%
CCCS(=O)(=O)NCC(O)c1c(Cl)cccc1Cl (configuration not stated)	-0.597%
O=C(NC1CCN(CC2CC2)C1)N1CCC(OC2CCCCC2)CC1 (configuration not stated)	14.5%
O=C(NC1CCN(CC2CCCC2)C1)N1CCC(OCC2CC2)CC1 (configuration not stated)	6.83%

Structure (SMILES)	cytotoxicity at 70.5 h
Cn1cc(CNC2CCCOc3c2ccc2ccccc32)cn1 (configuration not stated)	2.1%
O=S(=O)(Cc1ccccc1Cl)CC(O)CO (configuration not stated)	4.74%
O=S(=O)(CCO)CCc1ccccc1Cl	-9.35%
Cc1ncccc1NS(=O)(=O)Cc1cccc(F)c1	-2.53%
Cc1nc2cc(NCc3cnn(C)c3)ccc2n1C	-2.05%
Cc1ccc(Br)cc1NC(=O)NC1CCC2(C1)OCCO2 (configuration not stated)	18.1%
COc1cc(Cl)c(CN2CCC(C(N)=O)C2)cc1Cl (configuration not stated)	4.93%
CC1CCN(S(=O)(=O)N2CCCN(CC3CCCO3)CC2)CC1 (configuration not stated)	13.3%
CN1CCCC(CNC(=O)N(C)Cc2ccc(Cl)c(F)c2)C1 (configuration not stated)	7.7%
CCOC(C)c1nccn1Cc1cc(C)on1 (configuration not stated)	-1.6%
CC(NCCn1cccn1)c1ccccc1Cl (configuration not stated)	10.3%
O=C(CSCc1ccccn1)NCC1CC1	0.905%
CCC(O)(CNCc1cc[nH]n1)c1ccc(Br)cc1 (configuration not stated)	6.78%
Cc1c(NCc2ccccc2C#N)cccc1-n1cnnn1	-3.47%
CC(C(=O)NC1CC1)S(=O)(=O)Cc1noc(C(C)(C)C)n1 (configuration not stated)	-1.87%
CC(C)N(C)S(=O)(=O)NCc1cccnc1N(C)C	-4.22%
CC(C(=O)NC1CC1)S(=O)(=O)Cc1nc(Cc2ccccc2)no1 (configuration not stated)	-0.763%
CC(C(=O)NC1CCCC1)S(=O)(=O)Cc1noc(C(C)(C)C)n1 (configuration not stated)	7.9%
c1ccc2c(c1)OCCC2NCc1ccc(N2CCOCC2)cc1 (configuration not stated)	-2.79%
O=C(c1cccnc1O)N1CCOC(c2ccc(Cl)cc2)C1 (configuration not stated)	-0.483%
Cc1cc(N(Cc2cccnc2)C2CC2)n2nc(C(F)(F)F)nc2n1	9.82%
CN1CCC(CNC(=O)NCc2ccc(N(C)C)cc2)CC1	-2.97%
O=C1CSc2ccc(C(=O)N3CCCC(n4cccn4)C3)cc2N1 (configuration not stated)	-0.55%
Fc1ccc2c(c1)CCC2NCc1ccc(N2CCOCC2)cc1 (configuration not stated)	7.55%

Structure (SMILES)	cytotoxicity at 70.5 h
O=C1COc2cc(C(=O)N3CCCC(n4ccnc4)C3)ccc2N1 (configuration not stated)	-1.66%
COc1ccc(-c2noc(C3=NN(C)C(=O)CC3)n2)cc1OC	-3.46%
CCCC(C)CS(=O)(=O)NCc1cccnc1OC (configuration not stated)	1.49%
CC(C)Cc1nc(CN2CCC(N3CCN(C)C3=O)CC2)no1	-1.18%
O=C(CCn1c(C(F)(F)F)cc2cccnc21)N1CCOCC1	0.815%
Cc1csc2nc3n(c(=O)c12)CCN(Cc1ccccn1)CC3	2.36%
O=C(CCn1c(C(F)(F)F)cc2cccnc21)N1CCCC1	-0.515%
COc1ccccc1CNC(Cc1cccs1)c1nc(C)cs1 (configuration not stated)	3.54%
Cc1nc[nH]c1CN1CCc2nc3scc(C)c3c(=O)n2CC1	-1.43%
CC(C)c1cc(C(=O)N2CCc3nc(C4CCCN4)ncc3C2)cs1 (configuration not stated)	0.261%
Clc1ccccc1OCCc1cc(C2CCNC2)n[nH]1 (configuration not stated)	-4.47%
Cc1csc(CCNCc2cnc3c(c2)c(C)nn3C)n1	5.91%
O=C1CC(NCc2cnc(N3CCCC3)nc2)CN1c1ccccc1 (configuration not stated)	1.08%
CCOCc1cc(CN2CCn3c(CO)nnc3C2)ccc1OC	1.27%
COc1ccc(C(C)(C)C)cc1CN1CCn2c(CO)nnc2C1	6.88%
Cc1ccc(CN(CCCn2ccnc2)Cc2cc(F)ccc2F)s1	20.3%
Cc1ccc(CN(CCCn2ccnc2)Cc2cnc(N(C)C)nc2)s1	21.5%
COc1ccc(F)c(CN(CCCn2ccnc2)Cc2ccc(C)s2)c1	45.5%
Cc1ccc(CN(CCCn2ccnc2)Cc2ccccc2O)s1	3.23%
Cc1ccc(CN(CCCn2ccnc2)Cc2[nH]cnc2C)s1	2.51%
Cc1nc(Nc2cnccn2)cc(C2CN(C(C)C)C2)n1	-6.87%
